This test relates to apoptosome. As to the kind of experiment: Co-immunoprecipitation of apoptosome proteins with Apaf-1 in P5 cells. The conditions noted are these: carcinoma cells (P5), cisplatin, 24 h; Fig. 5b. The format is cell-based, human. As to the method:
• (a) P693 and CEM cells were treated with cisplatin (2 µg/ml) in the absence or presence of DEX (1 µM) as indicated. 24 and 48 h following treatment cells were lysed and caspase-9 activity was determined using a fluorescent caspase-9 assay and spectroscopy. • (b) P5 and CEM cells were treated as described above. 24 h after stimulation Apaf-1 was immunoprecipitated from the cell extracts using a […]. Aliquotes of the precipitates were separated by three different gels and analysed by Western blotting using rabbit polyclonal Apaf-1, mAb cytochrome c or caspase-9 antibodies. The antibody heavy chain band (IgGH) ensures equal conditions. […]
• (A) Cell culture. […] The mice were given 0.28 mg/L DEX in drinking water, and the amount of water consumed was monitored. […] The tumour volumes were measured using callipers, and calculated using, as an approximation, the formula for volume of a hemi-ellipsoid: π(width^2 x length)/6. […] Early apoptotic changes were identified by staining of cells with fluoresceinthiocyanate (FITC)-conjugated annexin V and propidium iodide (Becton Dickinson, Heidelberg, Germany) and analysed by flow cytometry (FACScan, Becton Dickinson) as described (Herr et al., EMBO J. 16 (1997), 6200-6208) • (E) Immunohistochemistry. […] Bound antibodies were detected by FITC conjugated anti-mouse or anti-rabbit IgG (Molecular Probes Europe, Leiden, The Netherlands). […]

Molecules are shown by their SMILES.

The values that follow come from patent EP1283052A1, “Pharmaceutical composition containing caspase-8 and /or caspase-9 useful for overcoming glucocorticoid- and cancer therapy-induced apoptosis of tumours” (Deutsches Krebsforschungszentrum Stiftung des öffentlichen …, priority 2001, dated 2003).

For the molecule `N.N.[Cl][Pt][Cl]` [cisplatin], the “amounts of immunoprecipitated apoptosome members (APAF-1, caspase-9, cytochrome c)” value was “strong induction in the amounts of APAF-1, caspase-9 and cytochrome c”.
